# Literature values as cited in patent US12640239B2, “Functional biomarkers for statin therapy in age-related macular degeneration (AMD)” (APELIOTUS TECHNOLOGIES, INC., priority 2017, dated 2026).
# Test system: older adults with normal retinal health or AMD
# Details: 30-day course of 50,000 international units of oral retinol, cited from earlier work
smiles,measurement,setting,value
CC1=C(/C=C/C(C)=C/C=C/C(C)=C/CO)C(C)(C)CCC1 [retinol],Dark adaptation vs placebo group,"30-day follow-up, 52 per group",significantly faster dark adaptation than the placebo group
same,Visual acuity vs placebo group,30-day follow-up,no difference in visual acuity between the groups
same,Improvement in dark adaptation after washout,after an additional 30-day washout period,reversed to the baseline level
